Patent US20250213474A1, “COMPOSITIONS AND METHODS FOR METAL CONTAINING FORMULATIONS CAPABLE OF MODULATING IMMUNE RESPONSE” (The Regents of the University of Michigan, priority 2021, published 2025)

Experiments:
CT26 colon cancer cells [1] = assay: CT26 colon tumor model, metal ion-CDA combinations and coordination formulations; assay type: in vivo, Balb/c mice; parameters: concentration or dose not given beside the values; conditions: three doses intratumoral on day 9, 12, 15
Procedure: FIGS. 6A-6D: Enhanced STING activation and cancer therapy efficacy by Co^2+ and Mn^2+ in Vivo. (FIG. 6A) individual tumor growth curve after three doses of intratumor injection of the indicated formulation at day 9, 12, 15 after tumor inoculation. (FIG. 6B) Serum IFN-beta concentration 8 h after the 1st dose of the indicated formulation. (FIGS. 6C-6D) individual tumor growth (FIG. 6C) and survival (FIG. 6D) of the tumor bearing mice after treated with the indicated formulations.
FIGS. 7A-7E: Enhanced STING activation by Co^2+ and Mn^2+ led to improved antigen specific immune response after In vivo. (FIG. 7A) the percentage of AH1-specific CD8+ T cells among PBMC on day 16. (FIG. 7B) IFN-γ secreting cells counts per 5E4 PBMCs after stimulation with AH1 peptides at day 22. […]
All animals were cared for following federal, state, and local guidelines. […] Tumor size and survival were monitored every 2 or 3 days. Tumor size was calculated based on equation: volume=length×width^2×0.5. […] At day 17, the percentages of tumor antigen-specific CD8α+ T cells among PBMC were analyzed using the tetramer staining assay as described previously with peptide-MHC tetramer ([…] AH1) (the NIH Tetramer Core Facility, Atlanta, GA). […]

CT26 colon cancer cells [2] = assay: CT26 tumor model, I.V. administration of CMP; assay type: in vivo; conditions: free CDA 100 μg; CMPCDA 20 μg
Procedure: (FIG. 22A) CT26 tumor-bearing BALB/c mice were treated with CDA+ Mn^2+ or CMPCDA, I.V. on days 9, 12, and 15. […] (FIGS. 22D-22F) Tumor growth (FIGS. 22D-22E) and animal survival (FIG. 22F) were Monitored over time. (FIG. 22G) Survivors re-challenged with CT26 tumor cells on day 145 were monitored for tumor Growth and survival.
For CT26 murine tumor model, female BALB/c mice of age 6-8 weeks (Jackson Laboratories) were inoculated with 1.5×10^5 CT26 colon cancer cells subcutaneously on the right back flank. […] Tumor-bearing mice were randomly assigned to different treatment groups. Indicated drugs or formulations were administrated via indicated route at indicated time points. Tumor size and survival were monitored every 2-4 days. Tumor size was calculated based on equation: volume=length×width^2×0.5. Animals were euthanized when the tumor reached 1.5 cm in diameter or when animals became moribund with severe weight loss or un-healing ulceration.
To address this issue, we evaluated the therapeutic effect of CMP after I.V. administration. CT26 tumor-bearing BABL/c mice were treated I.V. on days 9, 12, and 15 with 20 μg CDA and 10 μg Mn^2+ either in CMPCDA or soluble form (FIG. 22A).

NOOC1 tumor cells = assay: NOOC1 ICB-resistant squamous cell carcinoma model; assay type: in vivo, C57BL/6 mice; conditions: CDA dose 5 μg I.T. or 20 μg I.V., days 9, 12, 16, 20
Procedure: NOOC1 was maintained in the IMDM media (Gibco cat #12440053). To make 1L of growth media for NOOC1, 626 ml IMDM base was mixed with 313 ml F-12 nutrient mix (Gibco cat #11765054), 50 ml FBS (Hyclone cat #SH3039603), 10 ml Pen Strep (Thermo Fisher cat #15-140-122), 1.25 ml of 4 mg/ml insulin (Invitrogen cat #12585014), 200 μl of 200 μg/ml hydrocortisone (Sigma-Aldrich cat #H0888-1G), and 50 μl of 100 μg/ml EGF (EMD Millipore cat #01-107). For in vivo implantation, Matrigel (Thermo Fisher cat #CB-40230) was thawed overnight at 4° C. On the day of injection, NOOC1 was washed once with PBS and mixed with Matrigel to reach a density of 2×10^7 cells/ml. Each mouse was inoculated subcutaneously with 2×10^6 cells (100 μl). Tumor size and survival were monitored every 2 or 3 days as indicated above.
To further evaluate the potency of CMP, we performed head-to-head comparison studies between CMPCDA and other STING-activating formulations. C57BL/6 mice were inoculated at S.C. flank with 3×10^5 B16F10 tumors cells, and we administered three doses of CMPCDA on three-day intervals via either I.T. route when the average tumor volume reached 153±17 mm^3 (FIGS. 23A-23E) or via I.V. route when the average tumor volume reached 63±7 mm^3. (FIGS. 23F-23J)). […]

Nc1ncnc2c1ncn2[C@@H]1O[C@@H]2COP(=O)(O)O[C@H]3[C@@H](O)[C@H](n4cnc5c(N)ncnc54)O[C@@H]3COP(=O)(O)O[C@H]2[C@H]1O [free CDA, cyclic-di-AMP]
survival rate (CT26 colon cancer cells [1]): 20%
control of tumor growth by I.V. therapy (CT26 colon cancer cells [2]): could not control tumor growth
anti-tumor efficacy in NOOC1 model (NOOC1 tumor cells): refractory
